Laboratory results reported in patent US20090209633A1, “Treatment of Pain With Resiniferatoxin and Related Analogs” (priority 2006, published 2009).
pEC50: −log10 of the molar value. “Also recorded” adds a separate entry of the source. Like-named read-outs stand apart in the source and are kept apart here.

Legend:
native TRPV1 [1] = target: T1, native TRPV1 (Rattus norvegicus, UniProt O35433); assay: Whole-cell currents in cultured embryonic DRG neurons (patch clamp); type: cell-based; conditions: for reversibility of induced current: RTX 10 and 100 nM, washout >15 min; for activation phase of whole-cell current: −60 mV
T1 construct: RTX-induced membrane currents on native TRPV1 in embryonic DRG neurons grown in culture; endogenous in cells; host or cells: primary rat E18 DRG neurons
Description: Electrophysiology. Whole-cell and single-channel currents were recorded from rat DRG neurons in culture and from Xenopus laevis oocytes injected with rat TRPV1 cRNA. Animals were cared for according to the standards of the National Institutes of Health (NIH). All animal use protocols were approved by Southern Illinois University School of Medicine Animal Care Committee.
(§1) Primary DRG neuronal cultures were prepared from embryonic day 18 (E18) rat embryos. Adult pregnant rats were killed with an overdose of isoflurane. DRG were dissected and the cells were dissociated by triturating with a fire-polished glass pipette. Cells were cultured in Neurobasal medium (Life Technologies, Buffalo, N.Y., USA), supplemented with 10% fetal bovine serum (FBS), and grown on poly-D-lysine-coated glass coverslips. Cells were used from 5 to 15 days after plating. Small diameter (<30 μm) rounded neurons were selected for patch-clamp experiments. […] The Giga-seal patch-clamp technique was used to record whole-cell currents. For perforated-patch recordings, the bath solution contained (mM): sodium gluconate 140, KCl 2.5, Hepes 10, MgCl2 1 and ethylene glycol bis(2-aminoethyl ether)-N,N,N′N′-tetraacetic acid (EGTA) 1.5 (pH adjusted to 7.35 with NaOH), and the pipette solution contained (mM): sodium gluconate 130, NaCl 10, KCl 2.5, Hepes 10, MgCl2 1, EGTA 1.5 and 240 μg/ml^−1 amphotericin B (pH adjusted to 7.35 with NaOH). For current-clamp experiments the pipette solution contained (mM): potassium gluconate 130, NaCl 10, MgCl2 1, EGTA 0.2, K2ATP 1 and Hepes 10; pH adjusted to 7.35 with NaOH. Extracellular solution for current- and voltage-clamp experiments contained (mM): NaCl 140, KCl 4, MgCl2 1 and Hepes 10; pH adjusted to 7.35 with NaOH. Currents were recorded using a WPC 100 patch-clamp amplifier (E.S.F. Electronic, Goettingan, Germany). Data were filtered at 10 kHz, digitized (VR-10B, Instrutech Corp., Great Neck, N.Y., USA) and stored on videotapes or directly stored in the computer using a LabView interface. For analysis of whole-cell currents, data were filtered at 1 kHz (−3 db frequency with an 8-pole low-pass Bessel filter, Warner Instruments, LPF-8) and digitized at 2 kHz.
This example tests the activation of whole-cell current in DRG neurons by RTX. We determined the properties of RTX-induced membrane currents on native TRPV1 in embryonic DRG neurons grown in culture. […] Protons were not used to elicit currents because of the presence of acid-sensitive ion channels in these neurons.

native TRPV1 [2] = target: T1, native TRPV1; conditions: capsaicin 1 μM, cell-attached, Premkumar et al. 2002, cited from earlier work
DRG neurons = assay: Membrane depolarization and action potentials in DRG neurons (current clamp); type: cell-based, rat
Description: as §1
To attribute a physiological significance to the slow and irreversible action of RTX, we recorded membrane depolarization in current-clamp conditions. Action potentials in response to a current injection (10-100 pA) were recorded in order to confirm that the neurons were excitable (inset to FIGS. 9A and B). The average membrane potential was −57.1±1 mV (n=42).

TRPV1 [3] = type: in vivo
Text: Low concentrations of RTX (0.19 micrograms/kg) were introduced intrathecally.
FIG. 14 provides photographs of TRPV1 levels in paw skin with and without intrathecal RTX administration.

TRPV1 [4] = target: TRPV1 (Rattus norvegicus, UniProt O35433); conditions: Caterina et al. 1997, cited from earlier work
[5] = system: TRPV1-containing central terminals; assay: Paw withdrawal latency and nocifensive behavior after intrathecal RTX administration; type: in vivo
Text: FIG. 14 provides photographs of TRPV1 levels in paw skin with and without intrathecal RTX administration. […] However, because PWL is a test for acute pain sensation, it is inappropriate for studying TRPV1 involvement, because TRPV1 mediates inflammatory pain.

vanilloid receptors [6] = target: T2, vanilloid receptors (Rattus norvegicus, UniProt O35433); conditions: Acs et al. 1995; cited from earlier work
vanilloid receptors [7] = target: T2, vanilloid receptors; conditions: Acs et al. 1995; read-out: Kd, ability to induce Ca2+ uptake; cited from earlier work
[8] = RTX 0.19 micrograms/kg intrathecal

T1 sequence (O35433 whole entry): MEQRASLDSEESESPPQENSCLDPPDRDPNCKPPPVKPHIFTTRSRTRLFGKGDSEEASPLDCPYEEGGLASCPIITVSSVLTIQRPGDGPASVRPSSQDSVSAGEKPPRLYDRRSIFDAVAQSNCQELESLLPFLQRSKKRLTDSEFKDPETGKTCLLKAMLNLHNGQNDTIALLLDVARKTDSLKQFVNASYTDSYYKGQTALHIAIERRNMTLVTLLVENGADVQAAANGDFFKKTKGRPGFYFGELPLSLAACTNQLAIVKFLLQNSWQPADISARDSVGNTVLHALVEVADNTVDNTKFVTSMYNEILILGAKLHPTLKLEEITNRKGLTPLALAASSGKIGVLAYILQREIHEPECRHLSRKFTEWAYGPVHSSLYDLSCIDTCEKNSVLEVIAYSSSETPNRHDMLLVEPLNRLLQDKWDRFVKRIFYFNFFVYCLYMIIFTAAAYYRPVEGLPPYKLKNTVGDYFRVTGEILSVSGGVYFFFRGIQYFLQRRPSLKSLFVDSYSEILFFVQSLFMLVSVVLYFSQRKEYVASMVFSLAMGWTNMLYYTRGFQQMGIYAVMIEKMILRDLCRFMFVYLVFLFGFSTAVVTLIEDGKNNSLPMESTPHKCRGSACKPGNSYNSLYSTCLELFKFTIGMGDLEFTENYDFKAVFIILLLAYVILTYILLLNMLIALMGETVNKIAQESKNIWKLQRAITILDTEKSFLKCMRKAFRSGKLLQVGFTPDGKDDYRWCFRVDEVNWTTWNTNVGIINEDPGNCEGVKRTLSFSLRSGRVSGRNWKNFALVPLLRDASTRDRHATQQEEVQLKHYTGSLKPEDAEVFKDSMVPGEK
T2 sequence (O35433 whole entry): as above
TRPV1 (Rattus norvegicus, UniProt O35433), sequence (O35433 whole entry): as above

COc1cc(CNC(=O)CCCC/C=C/C(C)C)ccc1O [capsaicin]
reversibility of induced current (native TRPV1 [1]; capsaicin 1 μM): readily reversible
activation phase of whole-cell current (native TRPV1 [1]; capsaicin 1 μM): 7.14 ± 0.42 s
neurons responding to capsaicin (native TRPV1 [1]; small diameter cultured DRG neurons): More than 70%
maximal Po (native TRPV1 [2]; +60 mV): 0.4±0.08
maximal Po (native TRPV1 [2]; −60 mV): 0.8±0.04
membrane depolarization (DRG neurons; capsaicin 30 nM): 13.3±3.5 mV
number of action potentials (DRG neurons; capsaicin 30 nM): 54.2±10.5

C=C(C)[C@]12C[C@@H](C)[C@@]34O[C@](Cc5ccccc5)(O[C@@H]1[C@@H]3C=C(COC(=O)Cc1ccc(O)c(OC)c1)C[C@]1(O)C(=O)C(C)=C[C@@H]41)O2 [RTX, resiniferatoxin]
TRPV1 levels in DRG (TRPV1 [3]; [8]): maintenance; also recorded: remained constant
TRPV1 levels in spinal cord dorsal horn (DH) (TRPV1 [3]; [8]): reduction; also recorded: significantly reduced
effect on cell body or peripheral terminals (paw skin TRPV1) (TRPV1 [3]; RTX intrathecal): without affecting the cell body or peripheral terminals
activation phase of whole-cell current (native TRPV1 [1]; RTX 10 nM): 69 ± 10.9 s
activation phase of whole-cell current (native TRPV1 [1]; RTX 100 nM): 29.35 ± 2.65 s
reversibility of induced current (native TRPV1 [1]; capsaicin 1 μM): could not be reversed readily
fold more potent than capsaicin to activate TRPV1 current (TRPV1 [4]): 20 fold
pEC50 (TRPV1 [4]; read-out: EC50 to activate TRPV1 current): 7.41
nocifensive behavior to intraplantar injection of capsaicin [5]: dramatic decrease; also recorded: significantly reduced
paw withdrawal latency (PWL) to radiant heat [5]: no change; also recorded: not affected
duration of guarding ([5]; intraplantar capsaicin): decreased significantly
number of guarding ([5]; intraplantar capsaicin): decreased significantly
fold more potent for binding as compared to Ca2+ uptake (vanilloid receptors [6]): 25 fold
Ca2+ uptake potency (half-maximal concentration) (vanilloid receptors [7]): 1 nM
membrane depolarization (DRG neurons; RTX 3 pM): 10.6±1.6 mV
number of action potentials (DRG neurons; RTX 3 pM): 16.6±8.3
number of action potentials (DRG neurons; RTX 10 pM): 24.6±6.9
membrane depolarization (DRG neurons; RTX 10 nM): 32.2±5.1 mV
number of action potentials (DRG neurons; RTX 10 nM): 24.5±8.6
membrane depolarization (DRG neurons; RTX 1 μM): 52±2 mV
number of action potentials (DRG neurons; RTX 1 μM): 14.6±4.6
membrane depolarization (DRG neurons; RTX 10 μM (so in the source)): 14.1±1.5 mV
membrane depolarization (DRG neurons; RTX 100 μM (so in the source)): 16.3±3 mV
number of action potentials (DRG neurons; RTX ˜100 pM): 77.8±11.8
